Results reported in patent US20220401383A1 (SHINKEI THERAPEUTICS, INC., priority 2019, published 2022).
Like-named read-outs stand apart in the source and are kept apart here.

Legend:
[1] = tested on: Maximum Electroconvulsive Shock (MES) model; details: MES model in mouse; cited from earlier work
[2] = tested on: CBD metabolism in human liver microsomes; assay: Example 1: inhibition of CBD metabolism in pooled human liver microsomes; details: for Inhibition of CBD metabolism (in words): human liver microsomes; for IC50: read-out: HLM CYP inhibition IC50, substrate CBD, pooled HLM 0.1 mg/mL, CBD 1.64 μM, 15 minutes, n = 1
[3] = molecular target: T1, CYP2C19 (Homo sapiens, UniProt P33261)
[4] = molecular target: T2, CYP1A2 (Homo sapiens, UniProt P05177); details: cited from earlier work
T2 sequence (P05177 1-516): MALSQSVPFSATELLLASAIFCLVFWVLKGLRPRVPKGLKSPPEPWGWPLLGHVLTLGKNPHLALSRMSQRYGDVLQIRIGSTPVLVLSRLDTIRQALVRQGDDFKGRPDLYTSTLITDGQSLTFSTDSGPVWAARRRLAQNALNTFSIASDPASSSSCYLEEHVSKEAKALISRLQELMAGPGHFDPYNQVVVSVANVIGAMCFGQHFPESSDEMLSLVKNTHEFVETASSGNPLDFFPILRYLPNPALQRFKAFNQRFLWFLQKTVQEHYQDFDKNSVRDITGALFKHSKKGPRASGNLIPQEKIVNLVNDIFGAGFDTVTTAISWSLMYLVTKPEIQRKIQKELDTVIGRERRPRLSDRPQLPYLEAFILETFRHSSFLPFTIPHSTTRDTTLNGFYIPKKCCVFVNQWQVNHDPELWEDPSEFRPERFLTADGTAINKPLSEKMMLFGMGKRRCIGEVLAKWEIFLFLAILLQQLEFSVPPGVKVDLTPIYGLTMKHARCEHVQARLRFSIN

[5] = molecular target: T3, CYP2C8 (Homo sapiens, UniProt P10632); details: cited from earlier work
T3 sequence (P10632 1-490): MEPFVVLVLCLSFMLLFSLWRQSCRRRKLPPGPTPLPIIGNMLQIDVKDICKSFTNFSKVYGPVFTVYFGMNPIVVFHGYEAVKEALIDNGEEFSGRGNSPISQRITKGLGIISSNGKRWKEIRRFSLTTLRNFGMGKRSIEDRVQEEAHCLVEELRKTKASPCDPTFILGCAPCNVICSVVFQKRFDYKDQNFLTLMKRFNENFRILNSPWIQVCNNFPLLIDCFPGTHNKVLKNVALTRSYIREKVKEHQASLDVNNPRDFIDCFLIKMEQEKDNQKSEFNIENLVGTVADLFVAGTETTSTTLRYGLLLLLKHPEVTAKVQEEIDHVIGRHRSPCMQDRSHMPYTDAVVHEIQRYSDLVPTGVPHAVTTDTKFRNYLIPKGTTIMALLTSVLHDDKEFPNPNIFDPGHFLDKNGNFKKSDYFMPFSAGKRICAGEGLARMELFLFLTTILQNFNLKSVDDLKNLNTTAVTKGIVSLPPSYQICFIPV

[6] = molecular target: CYP2D6 (Homo sapiens, UniProt P10635); assay: biochemical
Description: Incubation mixtures were prepared with the following:
(a) potassium phosphate buffer;
(b) 0.1 mg/mL microsomal protein;
(c) isoform-specific probe substrates;
(d) specific concentrations of the test compounds, blank solvent, or positive controls (isoform-specific inhibitors); and
(e) an NADPH-regenerating cofactor solution.
Upon completion of the incubation, the reactions were quenched with an acetonitrile solution containing an internal standard. The samples were processed and analyzed by LC-MS/MS to monitor for substrate metabolite formation. The enzyme activity in the presence of the compounds were normalized with the enzyme activity in the absence of the compounds and expressed as a percentage of activity. The inhibitory potential (IC50) of the compounds were determined using nonlinear regression of percentage of activity versus compound concentration.

[7] = molecular target: T1, CYP2C19; details: cited from earlier work
[8] = tested on: CBD metabolism in human liver microsomes (CYP3A4 and CYP2C19); assay: in vitro
[9] = cited from earlier work
[10] = cited from earlier work; remark: listed apart in the source
[11] = Clinical pharmacokinetics (literature data); details: human, in vivo, oral

T1 sequence (P33261 whole entry): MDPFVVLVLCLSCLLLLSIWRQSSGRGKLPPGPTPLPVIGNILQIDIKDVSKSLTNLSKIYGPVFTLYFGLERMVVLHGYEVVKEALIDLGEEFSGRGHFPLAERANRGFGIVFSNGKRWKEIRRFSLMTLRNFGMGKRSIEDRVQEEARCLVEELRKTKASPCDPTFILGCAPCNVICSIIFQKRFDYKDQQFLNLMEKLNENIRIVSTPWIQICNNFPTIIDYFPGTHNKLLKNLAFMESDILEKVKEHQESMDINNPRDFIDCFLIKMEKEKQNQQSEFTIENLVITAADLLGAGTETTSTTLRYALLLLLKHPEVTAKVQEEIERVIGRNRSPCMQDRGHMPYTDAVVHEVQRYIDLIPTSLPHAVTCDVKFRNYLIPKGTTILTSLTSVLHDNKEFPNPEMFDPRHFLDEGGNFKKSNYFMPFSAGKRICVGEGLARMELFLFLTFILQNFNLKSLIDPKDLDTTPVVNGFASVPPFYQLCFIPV
CYP2D6, sequence (P10635 whole entry): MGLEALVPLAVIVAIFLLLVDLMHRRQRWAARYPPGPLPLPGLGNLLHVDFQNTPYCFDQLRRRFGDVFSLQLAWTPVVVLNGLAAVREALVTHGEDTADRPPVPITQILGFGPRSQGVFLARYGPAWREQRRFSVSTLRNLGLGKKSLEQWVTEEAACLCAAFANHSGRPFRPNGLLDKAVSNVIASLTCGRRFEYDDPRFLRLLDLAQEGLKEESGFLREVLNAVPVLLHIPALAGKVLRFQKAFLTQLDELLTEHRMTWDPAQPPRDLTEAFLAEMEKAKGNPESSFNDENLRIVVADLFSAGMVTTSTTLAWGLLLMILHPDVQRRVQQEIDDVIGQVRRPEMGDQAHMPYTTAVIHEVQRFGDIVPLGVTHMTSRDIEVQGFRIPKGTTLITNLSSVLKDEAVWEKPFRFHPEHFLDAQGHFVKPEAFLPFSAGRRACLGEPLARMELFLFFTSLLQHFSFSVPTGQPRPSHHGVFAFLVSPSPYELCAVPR

For C=C(C)[C@@H]1CCC(CO)=C[C@H]1c1c(O)cc(CCCCC)cc1O [7-OH-CBD], the Anticonvulsant effect [1] is listed as “anticonvulsant effect similar to CBD”.

For CC(C)c1nc(CN(C)C(=O)N[C@@H](CCN2CCOCC2)C(=O)N[C@H](CC[C@H](Cc2ccccc2)NC(=O)OCc2cncs2)Cc2ccccc2)cs1 [Cobicistat], the “Inhibition of CBD metabolism (in words)” value [2] is listed as “strong inhibitor of CBD metabolism”, the IC50 [3] is listed as 0.331 µM and the IC50 [4] is listed as greater than 25 µM. For the same molecule, the IC50 [5] was greater than 25 µM, the IC50 [6] was 0.479 µM and the IC50 [7] was greater than 25 µM.

COc1ccc2[nH]c([S+]([O-])Cc3ncc(C)c(OC)c3C)nc2c1 (stereo not drawn) [Omeprazole] showed an IC50 at 15 min [8] greater than 33 µM.

For C=C(C)[C@@H]1CCC(C(=O)O)=C[C@H]1c1c(O)cc(CCCCC)cc1O [7-COOH-CBD], the “Concentration of metabolite relative to CBD” value ([9]; after 1500 mg CBD dose) is listed as 47 fold, the “Share of the total drug material measured in systemic circulation” value ([9]; after 1500 mg CBD dose) is listed as 97% and the Anticonvulsant effect [1] is listed as “inactive”.

For CNCCC(Oc1ccc(C(F)(F)F)cc1)c1ccccc1 (stereo not drawn) [Fluoxetine], the “Inhibition of CBD metabolism (in words)” value [2] was “unable to inhibit metabolism of CBD” and the IC50 at 15 min [8] was greater than 33 µM.

For Cc1c(OCC(F)(F)F)ccnc1C[S+]([O-])c1nc2ccccc2[nH]1 (stereo not drawn) [Lansoprazole], the “Inhibition of CBD metabolism (in words)” value [2] was “effective inhibitors of CBD metabolism” and the IC50 at 15 min [8] was 20 µM.

In the case of C/C(=C\COc1c2ccoc2cc2oc(=O)ccc12)CCC(O)C(C)(C)O (stereo not drawn) [6,7-dihydroxybergamottin], the “Inhibition of CBD metabolism (in words)” value [2] is reported as “effective inhibitors of CBD metabolism” and the IC50 [2] is reported as 23.3 µM.

In the case of COc1ccc2[nH]c(S(=O)(=O)Cc3ncc(C)c(OC)c3C)nc2c1 [Omeprazole Sulphone], the IC50 [2] is reported as greater than 33 µM.

For C=C(C)[C@@H]1CCC(C)=C[C@H]1c1c(O)cc(CCCCC)cc1O [CBD, cannabidiol], the “Log P (partition coefficient)” value [10] is given as 6.1, the “Share of the total drug material measured in systemic circulation” value ([9]; after 1500 mg CBD dose) is given as 2% and the “CBD AUC” value ([9]; single dose 200 mg) is given as 499 ng·h/mL. The “CBD AUC” value ([9]; single dose 750 mg) was 1070 ng·h/mL, the “CBD AUC” value ([9]; single dose 1500 mg) was 1444 ng·h/mL and the “CBD AUC” value ([9]; single dose 3000 mg) was 2669 ng·h/mL. For the same molecule, the “CBD AUC” value ([9]; single dose 4500 mg) was 3215 ng·h/mL, the “CBD AUC” value ([9]; single dose 6000 mg) was 3696 ng·h/mL and the bioavailability ([11]; 200 mg) was 100%. For the same molecule, the bioavailability ([11]; 750 mg) was 57%, the bioavailability ([11]; 1500 mg) was 39% and the bioavailability ([11]; 3000 mg) was 36%. The bioavailability ([11]; 4500 mg) was 29% and the bioavailability ([11]; 6000 mg) was 25%.

CC(C)=CCC/C(C)=C/COc1c2ccoc2cc2oc(=O)ccc12 [Bergamottin] showed an IC50 at 15 min [8] greater than 33 µM.
